What follows are compounds tested against Poly [ADP-ribose] polymerase 1 (Mus musculus) (UniProt P11103) (assay: Percent inhibition of poly(ADP-ribose) polymerase-1 (PARP-1) in mouse using Cell protection assay at 10 uM).
Poly [ADP-ribose] polymerase 1 (Mus musculus), sequence (P11103 whole entry): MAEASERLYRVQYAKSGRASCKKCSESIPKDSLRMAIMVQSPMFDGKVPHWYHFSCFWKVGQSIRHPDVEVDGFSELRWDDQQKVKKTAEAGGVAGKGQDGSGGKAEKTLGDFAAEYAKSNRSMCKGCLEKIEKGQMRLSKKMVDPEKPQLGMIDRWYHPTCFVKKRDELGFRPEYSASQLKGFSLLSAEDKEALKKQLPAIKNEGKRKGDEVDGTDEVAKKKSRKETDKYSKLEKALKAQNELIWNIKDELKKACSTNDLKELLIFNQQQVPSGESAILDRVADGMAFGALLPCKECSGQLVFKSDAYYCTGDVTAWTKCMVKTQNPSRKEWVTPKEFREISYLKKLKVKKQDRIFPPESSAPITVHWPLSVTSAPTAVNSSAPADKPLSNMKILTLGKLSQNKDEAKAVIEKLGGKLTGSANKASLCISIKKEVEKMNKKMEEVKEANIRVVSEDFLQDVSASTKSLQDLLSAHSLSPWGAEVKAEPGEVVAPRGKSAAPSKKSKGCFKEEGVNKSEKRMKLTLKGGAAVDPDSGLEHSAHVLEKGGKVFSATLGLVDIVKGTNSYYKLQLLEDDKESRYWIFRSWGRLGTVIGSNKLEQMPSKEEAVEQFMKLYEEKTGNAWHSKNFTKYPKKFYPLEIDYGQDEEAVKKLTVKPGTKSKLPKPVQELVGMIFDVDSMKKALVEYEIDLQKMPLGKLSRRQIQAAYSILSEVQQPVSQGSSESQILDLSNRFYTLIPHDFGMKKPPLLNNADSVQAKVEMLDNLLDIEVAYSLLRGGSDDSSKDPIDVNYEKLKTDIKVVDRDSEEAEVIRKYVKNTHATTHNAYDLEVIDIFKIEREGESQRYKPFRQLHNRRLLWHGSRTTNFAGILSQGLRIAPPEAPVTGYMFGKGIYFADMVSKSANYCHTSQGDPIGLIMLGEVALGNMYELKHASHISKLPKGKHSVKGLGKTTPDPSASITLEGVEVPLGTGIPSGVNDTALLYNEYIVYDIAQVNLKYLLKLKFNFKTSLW
`O=C(CCCCCCC(=O)Nc1cccc2c1CNC2=O)NC[C@H]1OC(n2cnc3c(O)ncnc32)[C@H](O)[C@@H]1O` (some centres undefined) gave an inhibition of 30%. In the case of `NC(=O)c1cccc(NC(=O)CCC(=O)NCC2OC(n3cnc4c(N)ncnc43)[C@H](O)[C@@H]2O)c1` (some centres undefined), the inhibition is reported as 52%. `Nc1ncnc2c1ncn2C1O[C@H](CNC(=O)/C=C/c2ccc(C(=O)Nc3cccc4c3CNC4=O)cc2)[C@@H](O)[C@H]1O` (some centres undefined) showed an inhibition of 51%. `O=C1N=Cc2ccccc21` showed an inhibition of 33%.

Source: ChEMBL document CHEMBL1146715, “The discovery and synthesis of novel adenosine substituted 2,3-dihydro-1H-isoindol-1-ones: potent inhibitors of poly(ADP-ribose) polymerase-1 (PARP-1)” (Bioorg Med Chem Lett, 2004)
